Test results from paper PMC8779298, “The Campylobacter jejuni Response Regulator and Cyclic-Di-GMP Binding CbrR Is a Novel Regulator of Flagellar Motility” (Microorganisms, 2021).

How the values were obtained:
CbrR [1] = system: T1, CbrR; conditions: labelled compound (32P); 10 mM Tris pH 8.0, 5 mM MgCl2, 100 mM NaCl; active-site mutant
T1 construct: gene CJJ81176_0671
Target sequence in this assay (A0A0H3PJ41 whole entry E334A): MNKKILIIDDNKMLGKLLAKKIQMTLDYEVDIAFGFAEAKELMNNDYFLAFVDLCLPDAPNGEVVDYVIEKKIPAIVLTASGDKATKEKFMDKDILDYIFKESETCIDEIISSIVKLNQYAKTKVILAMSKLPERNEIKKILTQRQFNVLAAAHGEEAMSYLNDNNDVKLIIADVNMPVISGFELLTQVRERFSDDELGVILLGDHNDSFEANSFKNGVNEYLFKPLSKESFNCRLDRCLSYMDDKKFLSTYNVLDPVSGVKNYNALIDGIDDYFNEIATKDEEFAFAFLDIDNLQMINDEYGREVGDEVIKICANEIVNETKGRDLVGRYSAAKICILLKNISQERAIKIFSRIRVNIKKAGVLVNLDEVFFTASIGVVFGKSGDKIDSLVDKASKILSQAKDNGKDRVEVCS

CbrR [2] = system: T1, CbrR; conditions: labelled compound (32P); 10 mM Tris pH 8.0, 5 mM MgCl2, 100 mM NaCl; I-site mutant
Target sequence in this assay (A0A0H3PJ41 whole entry K323A/G324A/R325A/D326A): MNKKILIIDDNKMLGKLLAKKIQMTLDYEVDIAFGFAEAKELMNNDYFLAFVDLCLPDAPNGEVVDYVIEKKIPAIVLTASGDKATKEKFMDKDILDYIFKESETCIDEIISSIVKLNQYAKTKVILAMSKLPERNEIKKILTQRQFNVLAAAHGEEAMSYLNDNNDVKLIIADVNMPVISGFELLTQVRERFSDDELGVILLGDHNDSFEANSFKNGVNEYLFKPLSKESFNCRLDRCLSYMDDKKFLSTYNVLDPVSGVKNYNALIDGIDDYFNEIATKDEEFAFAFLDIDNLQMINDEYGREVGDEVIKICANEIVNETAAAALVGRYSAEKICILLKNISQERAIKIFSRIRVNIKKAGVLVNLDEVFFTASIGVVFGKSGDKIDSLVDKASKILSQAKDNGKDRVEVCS

Row | SMILES | DRaCALA, nitrocellulose spot (CbrR [1]) | binding (CbrR [2])
1 | Nc1nc2c(ncn2[C@@H]2O[C@H](COP(=O)(O)OP(=O)(O)OP(=O)(O)O)[C@@H](O)[C@H]2O)c(=O)[nH]1 [GTP] | did not affect binding of either GTP or c-di-GMP | 
2 | Nc1nc2c(ncn2[C@@H]2O[C@@H]3COP(=O)(O)O[C@H]4[C@@H](O)[C@H](n5cnc6c(=O)[nH]c(N)nc65)O[C@@H]4COP(=O)(O)O[C@H]3[C@H]2O)c(=O)[nH]1 [c-di-GMP] | did not affect binding of either GTP or c-di-GMP | substitution of the I-site in the protein led to the loss of c-di-GMP binding
